US11896644B2, “Inhibition of beta-arrestin oligomerization in tauopathy” (UNIVERSITY OF SOUTH FLORIDA, priority 2020, dated 2024)

How the values were obtained:
[1] = target: T1, GFP-βarrestin2/Flag-βarrestin2 complexes (βarrestin2 self-interaction) (Rattus norvegicus, UniProt P29067); assay: Co-immunoprecipitation (co-IP) for GFP-βarrestin2/Flag-βarrestin2 complexes; type: cell-based; conditions: 20 μM, 6 hours, Hela-V5-tau cells
T1 construct: expressed in transfected cells; host or cells: Hela-V5-tau cells
Protocol: (§1) Brain homogenates and cultured cells were lysed with RIPA buffer (50 mM Tris pH 7.4, 150 mM NaCl, 2 mM ethlenediaminetetraacetic acid, 1% NP-40, 0.1% sodium dodecyl sulfate) plus protease and phosphatase inhibitors. Proteins were extracted and centrifuged at 15000 rpm for 15 min at 4° C., and RIPA insoluble fractions were lysed with 5% SDS with 1% β-mercaptoethanol, 50 mM Tris-HCl pH 6.8, 12.5 mM EDTA, 10% glycerol, and 0.02% bromophenol blue. Supernatants were used for western blot analysis. […]. co-IP experiments were carried out from NP40 lysates or indicated buffers with preclearing with IgG beads followed by IP with IgG beads alone or IgG beads+indicated antibodies, extensive washing (5×) with the original buffer, and Western blotting on SDS-PAGE. Sarkosyl extraction was performed as previously described (Hasegawa M, et al. (2007) Brain 130(Pt 5):1386-1394). Briefly, brain homogenates were lysed with A68 buffer containing 10 mM Tris-HCl, pH 7.4, 0.8M NaCl, 10% Sucrose, 1 mM EGTA). Samples were centrifuged at 400 g for 20 min at 4° C., and 1% sarkosyl was added to the collected supernatants. The samples were incubated for 1.5 h and centrifuged at 80,000 g for 30 min at room temperature. The pellets were resuspended in 100 ul of 50 mM Tris-HCl, pH 7.4.
FIGS. 28A and 28B show compounds C2 and C2 inhibit β-arrestin2 oligomerization. […]

[2] = tested on: sarkosyl-insoluble tau in HeLa-V5-tau cells; assay: Sarkosyl soluble and insoluble fractionation of compound-treated HeLa-V5-tau cells; type: cell-based; conditions: 20 μM, 6 hours
Protocol: as §1
FIGS. 27A and 27B show C1 and C2 compounds reduce pathogenic tau. […]

[3] = tested on: total tau levels in HeLa-V5-tau cells; assay: Total tau by western blotting in HeLa-V5-tau cells treated with compounds; type: cell-based; conditions: 10 μM, 6 hours
Protocol: as §1
(n=4, one-way ANOVA, post hoc Dunnett's, **P<0.005, ***P<0.0005).

[4] = target: T2, GFP-βarrestin2/Flag-βarrestin2 complexes (β-arrestin2 oligomerization) (Rattus norvegicus, UniProt P29067); assay: Proximity ligation assay (PLA) for GFP-βarrestin2/Flag-βarrestin2 complexes; type: cell-based; conditions: 20 μM, 6 hours, Hela-V5-tau cells
T2 construct: expressed in transfected cells; host or cells: Hela-V5-tau cells
Protocol: The assay was performed using commercially available reagents (Duolink, Sigma-Aldrich, St Louis, MO), with transfection of Hela V5-tau cells with WT β-arrestin2-flag and β-arrestin2-myc, without and with the mutant β-arrestin2 ΔIP6C or β-arrestin2 ΔIP6N constructs. Cells were fixed with 4% paraformaldehyde for 15 min at room temperature and washed with 0.2% triton in TBS. After washing, cells were blocked with 0.2% Triton in 3% Normal goat serum for 1 hour at room temperature. After applying primary antibodies overnight at 4° C., cells were washed and incubated with the PLA probes at 37° C. (1 h), washed with buffer A, incubated with ligation solution at 37° C. (30 min), washed with washing buffer A, incubated with amplification solution at 37° C. (100 min), and washed with washing buffer B before mounting.
FIGS. 28A and 28B show compounds C2 and C2 inhibit β-arrestin2 oligomerization. Hela-V5-tau cells were transfected with GFP-βarrestin2 and Flag-βarrestin2 and treated with 20 μM of 01, C1, or C2 for 6 hours.

[5] = tested on: HT7 (total human tau) in Tau-P301S hippocampal primary neurons; assay: HT7 staining of DIV21 hippocampal primary neurons from Tau-P301S mice treated with compounds; type: cell-based; conditions: 20 μM, 6 hours
Protocol: Primary mouse hippocampal and cortical neuronal cultures were previously described (Woo J A, et al. (2019) Commun Biol 2:112; Woo J A, et al. (2017) Hum Mol Genet 26(20):3973-3988; Woo J A, et al. (2015) Cell Death Differ 22(6):1069-1070). Briefly, primary neurons were prepared from P0 mice. Both hippocampus and cortex were dissected separately in HBSS and digested with trypsin. Neurons were plated on glass coverslips coated with poly-D-lysine (Sigma-Aldrich, St Louis, MO, USA) and maintained in neurobasal medium with glutamax (Invitrogen, Carlsbad, CA, USA) and B27 supplement (Invitrogen, Carlsbad, CA, USA).
Cells were fixed with 4% paraformaldehyde for 15 min at room temperature and washed with 0.2% triton in TBS and blocked using 3% BSA with 0.1% triton x-100 for 1 hr, incubated with primary antibodies for overnight at 4° C. and fluorescently labeled secondary antibodies for 45 min at room temperature. […] Images were captured with the Olympus FV10i confocal microscope (Tokyo, Japan), and the immunoreactivities were quantified using the Image J software (National Institutes of Health, Bethesda, MD). Immunoreactivities were quantitated from every 12th serial section through an entire hippocampus. […] Regions of interest were chosen randomly, and investigators were blinded to experimental conditions during image acquisition and quantification. […]

[6] = target: T3, β-arrestin2 oligomerization (Rattus norvegicus, UniProt P29067); assay: FRET assay CFP-βarrestin2/YFP-βarrestin2 in Hela-V5-tau cells; type: cell-based; conditions: 20 μM, 30 min
T3 construct: expressed in transfected cells; host or cells: Hela-V5-tau cells

tau phosphorylation [7] = conditions: cited from earlier work
phospho-tau [8] = assay: Phospho-tau immunoblot in Hela-V5-tau cells transfected with siRNA and treated with GPCR agonists; type: cell-based; conditions: for tau phosphorylation: 10 μM, control siRNA or β-arrestin2 siRNA experiment (FIGS. 13E,13F); for phospho-tau response in β-arrestin1 siRNA transfected cells: β-arrestin1 knockdown; for tau phosphorylation, control siRNA transfected cells: β-arrestin1 siRNA experiments (FIGS. 13A-13D)
Protocol: FIGS. 13A to 13F show β-arrestin1 is required for mGluR2 and β2AR mediated increase in pathogenic tau. […] After transfection, cells were treated with either vehicle or 10 μM isoproterenol (Iso), lysed and immunoblotted for indicated proteins. Representative blots are shown. […] 1-way ANOVA with Dunnett's test. […] Representative blots are shown. […] 1-way ANOVA with Dunnett's test. […] 1-way ANOVA with Dunnett's test.
At present, it is not clear how different GPCRs, such as β2AR and mGluR2, and their agonists alter tau phosphorylation. One commonality of downstream signaling between these GPCRs is β-arrestin1 and β-arrestin2, which were initially identified and characterized based on its function to internalize and desensitize GPCRs, including β2AR (Lohse, M. J. et al. J Biol Chem (1992) 267:8558-8564) and mGluR2 (lacovelli, L. et al. Mol Pharmacol (2009) 75:991-1003). To test whether β-arrestin1 and/or β-arrestin2 is required for β2AR-mediated regulation of tau, Hela-V5-tau cells were transfected with control siRNA or β-arrestin1 siRNA and treated either vehicle or 10 μM Iso. […] Next, assessed was whether β-arrestin1 is required for mGluR2-mediated tau phosphorylation. […] Next, Hela-V5-tau cells were transfected with control siRNA or β-arrestin2 siRNA and treated vehicle, 10 μM Iso or LY-379,268.

phospho-tau [9] = assay: Phospho-tau in tauP301S cortical primary neurons treated with GPCR agonists; type: cell-based, mice; conditions: 10 μM
Source text: FIGS. 20A to 20E show β-arrestin is required mGluR2 and β2AR mediated tau accumulation and phosphorylation. […] Representative blots are shown. […] Unpaired t-test. All data are presented as mean±SEM. […] Representative blots are shown. […] Unpaired t-test. All data are presented as mean±SEM. […] Representative blots are shown.
Based on these prior observations, the goal was to confirm these findings in tauP301S transgenic primary neurons and Hela cells stably expressing tau (V5-tagged 4R0N tau, Hela-V5-tau cells).

tau phosphorylation [10] = conditions: cited from earlier work; remark: listed apart in the source

T1 sequence (P29067 whole entry, one chain of several): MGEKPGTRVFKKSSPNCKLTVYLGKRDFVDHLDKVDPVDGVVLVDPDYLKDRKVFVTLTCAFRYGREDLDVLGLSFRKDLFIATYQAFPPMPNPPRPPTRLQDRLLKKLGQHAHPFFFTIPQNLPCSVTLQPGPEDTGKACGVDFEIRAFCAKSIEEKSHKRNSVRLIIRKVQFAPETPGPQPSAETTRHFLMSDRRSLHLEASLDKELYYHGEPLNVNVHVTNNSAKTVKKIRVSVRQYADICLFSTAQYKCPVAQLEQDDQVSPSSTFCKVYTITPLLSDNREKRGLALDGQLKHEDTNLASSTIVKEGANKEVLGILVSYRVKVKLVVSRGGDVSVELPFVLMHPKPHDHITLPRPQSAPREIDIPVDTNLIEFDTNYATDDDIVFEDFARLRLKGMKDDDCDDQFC
T2 sequence (P29067 whole entry, one chain of several): as above
T3 sequence (P29067 whole entry): as the sequence (P29067 whole entry, one chain of several) above

| Structure (SMILES) | βarrestin2 self-interaction by co-IP [1] | sarkosyl-insoluble tau levels [2] | total tau levels [3] | βarrestin2 oligomerization by PLA [4] | HT7 immunoreactivity (total human tau) [5] | CFP to YFP FRET signal [6] | tau phosphorylation in rats (tau phosphorylation [7]) | tau phosphorylation (phospho-tau [8]) | phospho-tau response in β-arrestin1 siRNA transfected cells (phospho-tau [8]) | tau phosphorylation, control siRNA transfected cells (phospho-tau [8]) | phospho-tau (phospho-tau [9]) | tau phosphorylation via ERK activation (tau phosphorylation [10]) |
| --- | --- | --- | --- | --- | --- | --- | --- | --- | --- | --- | --- | --- |
| O=C(CNC(=O)c1ccc2c(c1)CCC2)NCc1cn2ccccc2n1 [C1, 2-[(2,3-dihydro-1H-inden-5-yl)formamido]-N-({imidazo[1,2-a]pyridin-2-yl}methyl)acetamide] | reduce βarrestin2 self-interaction to background levels | significantly decreased | significantly decreased | significant reduction | significantly decreased |  |  |  |  |  |  |  |
| Cc1ccc(NCCNC(=O)c2cc(-c3ccccc3)no2)nn1 [C2, N-{2-[(6-methylpyridazin-3-yl)amino]ethyl}-3-phenyl-1,2-oxazole-5-carboxamide] | reduce βarrestin2 self-interaction to background levels | significantly decreased | significantly decreased | significant reduction | significantly decreased | reduces CFP to YFP FRET signal |  |  |  |  |  |  |
| CC(C)NCC(O)c1ccc(O)c(O)c1 (stereo not drawn) [Isoproterenol] |  |  |  |  |  |  | markedly increases tau phosphorylation | increased | failed to respond | increased | significantly increased |  |
| N[C@@]1(C(=O)O)CO[C@H]2[C@H](C(=O)O)[C@H]21 [LY-379,268] |  |  |  |  |  |  |  | increased | failure to respond | increased | increased | increase tau phosphorylation |
